Measurements as given in patent US20230085307A1, “PYRIDAZINONE COMPOUND AND HERBICIDE” (NISSAN CHEMICAL CORPORATION, priority 2019, published 2023).

How the values were obtained:
[1] = test system: Japanese bulrush; test: Test Example 2: herbicidal activity, application during weed generation under submerged conditions (Table 17, symbol B); format: in vivo, Japanese bulrush (Schoenoplectus juncoides); details: application during weed generation, submerged conditions
How it was run: (§1)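 Alluvial soil in Wagner pots was flooded to 4 cm depth and sown with the three weeds together; pots were kept in a greenhouse at 25° C. to 30° C. At the one to two leaf stage, an emulsion formulation diluted in water to a set rate went onto the water surface; scored three weeks later.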

[2] = test system: chickweed; test: Test Example 5: herbicidal effect by foliage application, plastic box (Table 20, symbol P); format: in vivo, common chickweed (Stellaria media); details: foliage application
How it was run: (§2)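 Foliar spray test: emulsion formulation diluted in water to a set application rate, sprayed onto 14-day-old plants raised in diluvial soil at 25° C to 30° C under glass. Both herbicidal effect and crop effect rated visually three weeks later.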

[3] = test system: redroot pigweed; test: Test Example 4: herbicidal effect by soil treatment (Table 19, symbol N); format: in vivo, redroot pigweed (Amaranthus retroflexus)
How it was run: (§3)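 Step 1: sow seeds in sterilized diluvial soil, cover ~1.5 cm. Step 2: spray diluted emulsion onto soil surface at predetermined rate. Step 3: greenhouse, 25–30° C, three weeks. Step 4: grade effect on each plant by earlier criteria.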

[4] = test system: late watergrass; test: Test Example 2: herbicidal activity, application during weed generation under submerged conditions (Table 17, symbol A); format: in vivo, late watergrass (Echinochloa oryzicola); details: application during weed generation, submerged conditions
How it was run: as §1

[5] = test system: velvetleaf; test: Test Example 4: herbicidal effect by soil treatment (Table 19, symbol M); format: in vivo, velvetleaf (Abutilon theophrasti)
How it was run: as §3

[6] = test system: blackgrass; test: Test Example 4: herbicidal effect by soil treatment (Table 19, symbol J); format: in vivo, blackgrass (Alopecurus myosuroides)
How it was run: as §3

[7] = test system: barnyard grass; test: Test Example 4: herbicidal effect by soil treatment (Table 19, symbol H); format: in vivo, barnyard grass (Echinochloa crus-galli)
How it was run: as §3

[8] = test system: wild oat; test: Test Example 4: herbicidal effect by soil treatment (Table 19, symbol I); format: in vivo, wild oat (Avena fatua)
How it was run: as §3

[9] = test system: false cleavers; test: Test Example 4: herbicidal effect by soil treatment (Table 19, symbol Q); format: in vivo, false cleavers (Galium spurium)
How it was run: as §3

[10] = test system: green foxtail; test: Test Example 4: herbicidal effect by soil treatment (Table 19, symbol G); format: in vivo, green foxtail (Setaria viridis)
How it was run: as §3

[11] = test system: barnyard grass; test: Test Example 5: herbicidal effect by foliage application, plastic box (Table 20, symbol H); format: in vivo, barnyard grass (Echinochloa crus-galli); details: foliage application
How it was run: as §2

[12] = test system: windgrass; test: Test Example 5: herbicidal effect by foliage application, plastic box (Table 20, symbol L); format: in vivo, windgrass (Apera spica-venti); details: foliage application
How it was run: as §2

[13] = test system: persian speedwell; test: Test Example 4: herbicidal effect by soil treatment (Table 19, symbol R); format: in vivo, Persian speedwell (Veronica persica)
How it was run: as §3

[14] = test system: redroot pigweed; test: Test Example 5: herbicidal effect by foliage application, plastic box (Table 20, symbol N); format: in vivo, redroot pigweed (Amaranthus retroflexus); details: foliage application
How it was run: as §2

[15] = test system: oval-leafed pondweed; test: Test Example 2: herbicidal activity, application during weed generation under submerged conditions (Table 17, symbol C); format: in vivo, oval-leafed pondweed (Monochoria vaginalis); details: application during weed generation, submerged conditions
How it was run: as §1

[16] = test system: false cleavers; test: Test Example 5: herbicidal effect by foliage application, plastic box (Table 20, symbol Q); format: in vivo, false cleavers (Galium spurium); details: foliage application
How it was run: as §2

[17] = test system: persian speedwell; test: Test Example 5: herbicidal effect by foliage application, plastic box (Table 20, symbol R); format: in vivo, Persian speedwell (Veronica persica); details: foliage application
How it was run: as §2

[18] = test system: southern crabgrass; test: Test Example 4: herbicidal effect by soil treatment (Table 19, symbol F); format: in vivo, southern crabgrass (Digitaria ciliaris)
How it was run: as §3

[19] = 274 g/ha, three weeks after application
[20] = amount of applied herbicide 274 g/ha
[21] = 320 g/ha, evaluated three weeks after application
[22] = amount of applied herbicide 320 g/ha
[23] = 320 g/ha, three weeks after application

Structure (SMILES)	herbicidal effect rating, B: Japanese bulrush ([1]; AAH 320 g/ha)	herbicidal effect rating, A: late watergrass ([4]; AAH 320 g/ha)	herbicidal effect rating, C: oval-leafed pondweed ([15]; AAH 320 g/ha)	herbicidal effect grade, P: chickweed [2, 23]	herbicidal effect rating, N: redroot pigweed [3, 22]	herbicidal effect rating, M: velvetleaf [5, 22]	herbicidal effect rating, J: blackgrass [6, 22]	herbicidal effect rating, H: barnyard grass [7, 22]	herbicidal effect rating, I: wild oat [8, 22]	herbicidal effect rating, Q: false cleavers [9, 22]	herbicidal effect grade, H: barnyard grass [11, 23]	herbicidal effect grade, L: windgrass [12, 23]	herbicidal effect rating, R: persian speedwell [13, 22]	herbicidal effect grade, N: redroot pigweed [14, 23]	herbicidal effect grade, Q: false cleavers [16, 23]	herbicidal effect grade, R: persian speedwell [17, 23]	herbicidal effect rating, F: southern crabgrass [18, 22]	other results
COc1ccccc1-c1sc2cc(C)ccc2c1-c1c(O)c(C)nn(C)c1=O [3-049]																		herbicidal effect rating, B: Japanese bulrush ([1]; AAH 274 g/ha): 3 (Herbicidal rate of 40% or more and less than 70%); P: chickweed, herbicidal effect grade [2, 19]: 5 (Herbicidal rate of 90% or more (almost completely withered)); N: redroot pigweed, herbicidal effect grade [3, 20]: 4 (Herbicidal rate of 70% or more and less than 90%); herbicidal effect rating, A: late watergrass ([4]; AAH 274 g/ha): 4 (Herbicidal rate of 70% or more and less than 90%); M: velvetleaf, herbicidal effect grade [5, 20]: 0 (Herbicidal rate of 5% or less (almost no effect)); J: blackgrass, herbicidal effect grade [6, 20]: 3 (Herbicidal rate of 40% or more and less than 70%); H: barnyard grass, herbicidal effect grade [7, 20]: 3 (Herbicidal rate of 40% or more and less than 70%); I: wild oat, herbicidal effect grade [8, 20]: 3 (Herbicidal rate of 40% or more and less than 70%); Q: false cleavers, herbicidal effect grade [9, 20]: 3 (Herbicidal rate of 40% or more and less than 70%); G: green foxtail, herbicidal effect grade [10, 20]: 3 (Herbicidal rate of 40% or more and less than 70%); H: barnyard grass, herbicidal effect grade [11, 19]: 4 (Herbicidal rate of 70% or more and less than 90%); L: windgrass, herbicidal effect grade [12, 19]: 5 (Herbicidal rate of 90% or more (almost completely withered)); R: persian speedwell, herbicidal effect grade [13, 20]: 4 (Herbicidal rate of 70% or more and less than 90%); N: redroot pigweed, herbicidal effect grade [14, 19]: 5 (Herbicidal rate of 90% or more (almost completely withered)); herbicidal effect rating, C: oval-leafed pondweed ([15]; AAH 274 g/ha): 2 (Herbicidal rate of 20% or more and less than 40%); Q: false cleavers, herbicidal effect grade [16, 19]: 5 (Herbicidal rate of 90% or more (almost completely withered)); R: persian speedwell, herbicidal effect grade [17, 19]: 5 (Herbicidal rate of 90% or more (almost completely withered)); F: southern crabgrass, herbicidal effect grade [18, 20]: 3 (Herbicidal rate of 40% or more and less than 70%)
COc1ccccc1-c1sc2ccc(Cl)cc2c1-c1c(O)c(C)nn(C)c1=O [2-101]	3 (Herbicidal rate of 40% or more and less than 70%)	0 (Herbicidal rate of 5% or less (almost no effect))	5 (Herbicidal rate of 90% or more (almost completely withered))															herbicidal effect on P: chickweed [2, 21]: 5 (Herbicidal rate of 90% or more (almost completely withered)); N: redroot pigweed, herbicidal effect rating [3, 22]: 5 (Herbicidal rate of 90% or more (almost completely withered)); M: velvetleaf, herbicidal effect rating [5, 22]: 3 (Herbicidal rate of 40% or more and less than 70%); J: blackgrass, herbicidal effect rating [6, 22]: 1 (Herbicidal rate of 5% or more and less than 20%); H: barnyard grass, herbicidal effect rating [7, 22]: 3 (Herbicidal rate of 40% or more and less than 70%); I: wild oat, herbicidal effect rating [8, 22]: 0 (Herbicidal rate of 5% or less (almost no effect)); Q: false cleavers, herbicidal effect rating [9, 22]: 5 (Herbicidal rate of 90% or more (almost completely withered)); G: green foxtail, herbicidal effect rating [10, 22]: 2 (Herbicidal rate of 20% or more and less than 40%); herbicidal effect on H: barnyard grass [11, 21]: 3 (Herbicidal rate of 40% or more and less than 70%); herbicidal effect on L: windgrass [12, 21]: 4 (Herbicidal rate of 70% or more and less than 90%); R: persian speedwell, herbicidal effect rating [13, 22]: 4 (Herbicidal rate of 70% or more and less than 90%); herbicidal effect on N: redroot pigweed [14, 21]: 5 (Herbicidal rate of 90% or more (almost completely withered)); herbicidal effect on Q: false cleavers [16, 21]: 5 (Herbicidal rate of 90% or more (almost completely withered)); herbicidal effect on R: persian speedwell [17, 21]: 5 (Herbicidal rate of 90% or more (almost completely withered)); F: southern crabgrass, herbicidal effect rating [18, 22]: 3 (Herbicidal rate of 40% or more and less than 70%)
CCCCOc1ccc(-c2sc3ccccc3c2-c2c(OC(=O)CCC)c(C)nn(C)c2=O)cc1 [1-025]	3 (Herbicidal rate of 40% or more and less than 70%)	0 (Herbicidal rate of 5% or less (almost no effect))	3 (Herbicidal rate of 40% or more and less than 70%)	5 (Herbicidal rate of 90% or more (almost completely withered))	5 (Herbicidal rate of 90% or more (almost completely withered))	0 (Herbicidal rate of 5% or less (almost no effect))	0 (Herbicidal rate of 5% or less (almost no effect))	0 (Herbicidal rate of 5% or less (almost no effect))	0 (Herbicidal rate of 5% or less (almost no effect))	0 (Herbicidal rate of 5% or less (almost no effect))	4 (Herbicidal rate of 70% or more and less than 90%)	0 (Herbicidal rate of 5% or less (almost no effect))	3 (Herbicidal rate of 40% or more and less than 70%)	5 (Herbicidal rate of 90% or more (almost completely withered))	3 (Herbicidal rate of 40% or more and less than 70%)	5 (Herbicidal rate of 90% or more (almost completely withered))	0 (Herbicidal rate of 5% or less (almost no effect))	
CCCCOc1ccc(-c2sc3ccccc3c2-c2c(O)c(C)nn(C)c2=O)cc1 [1-024]	4 (Herbicidal rate of 70% or more and less than 90%)	4 (Herbicidal rate of 70% or more and less than 90%)	5 (Herbicidal rate of 90% or more (almost completely withered))	5 (Herbicidal rate of 90% or more (almost completely withered))	4 (Herbicidal rate of 70% or more and less than 90%)	4 (Herbicidal rate of 70% or more and less than 90%)	0 (Herbicidal rate of 5% or less (almost no effect))	3 (Herbicidal rate of 40% or more and less than 70%)	0 (Herbicidal rate of 5% or less (almost no effect))	0 (Herbicidal rate of 5% or less (almost no effect))	5 (Herbicidal rate of 90% or more (almost completely withered))	4 (Herbicidal rate of 70% or more and less than 90%)	4 (Herbicidal rate of 70% or more and less than 90%)	5 (Herbicidal rate of 90% or more (almost completely withered))	4 (Herbicidal rate of 70% or more and less than 90%)	5 (Herbicidal rate of 90% or more (almost completely withered))	0 (Herbicidal rate of 5% or less (almost no effect))	herbicidal effect rating, G: green foxtail [10, 22]: 0 (Herbicidal rate of 5% or less (almost no effect))
